According to paper PMC5464637, “Identification of key amino acid residues in the hTGR5–nomilin interaction and construction of its binding model” (PLoS ONE, 2017):
Numbering of substitutions follows the chain as printed.

Legend:
hTGR5-WT = target: T1, hTGR5-WT (Homo sapiens, UniProt Q8TDU6); assay: CRE-luciferase reporter assay in HEK293 cells transfected with hTGR5-WT; type: cell-based; conditions: for agonist activity (CRE-luciferase response): hTGR5-WT, 100 μM, 5 h, HEK293
T1 construct: expressed in transfected cells; host or cells: HEK293
T1 sequence (Q8TDU6 1-330): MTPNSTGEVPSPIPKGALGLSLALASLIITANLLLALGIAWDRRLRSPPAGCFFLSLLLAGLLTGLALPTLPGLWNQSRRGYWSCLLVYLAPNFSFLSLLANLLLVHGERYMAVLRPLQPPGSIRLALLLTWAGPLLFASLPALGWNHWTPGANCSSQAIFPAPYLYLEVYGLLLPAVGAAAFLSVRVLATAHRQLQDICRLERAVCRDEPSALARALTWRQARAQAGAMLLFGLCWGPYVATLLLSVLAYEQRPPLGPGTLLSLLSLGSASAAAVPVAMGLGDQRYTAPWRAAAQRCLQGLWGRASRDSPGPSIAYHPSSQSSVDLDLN
Protocol: (§1) HEK293 cells were plated in 12-well plates at a density of 1.0 × 10^5 cells/well. Twenty hours later, the cells were transfected with pCRE-Luc, p3×FLAG-CMV-TGR5, and pEF-β-galactosidase (100 ng/well each) using the calcium phosphate method. After 4 h of incubation, the medium was replaced with DMEM, which contained 10% dextran charcoal-stripped FBS. Twenty-four hours after transfection, the cells were treated with the previously mentioned compounds and control vehicle (DMSO). After 5 h, the cells were then incubated with lysis buffer (25 mM Tris-phosphate [pH 7.8], 2 mM dithiothreitol [DTT], 2 mM trans-1,2-Diaminocyclohexane-N,N,N, N′-tetraacetic acid [CDTA], 10% glycerol, and 1% Triton X-100) on ice, and the luciferase and β-galactosidase activity were measured. The luciferase activity values were divided by those of β-galactosidase to obtain normalized luciferase values.

mTGR5-WT = target: T2, mTGR5-WT (Mus musculus, UniProt Q80SS6); assay: CRE-luciferase reporter assay in HEK293 cells transfected with mTGR5-WT; type: cell-based; conditions: for agonist activity (CRE-luciferase response): 100 μM, 5 h, HEK293; for EC50: CRE-luciferase dose-response, HEK293, n = 3
T2 construct: expressed in transfected cells; host or cells: HEK293
T2 sequence (Q80SS6 1-329): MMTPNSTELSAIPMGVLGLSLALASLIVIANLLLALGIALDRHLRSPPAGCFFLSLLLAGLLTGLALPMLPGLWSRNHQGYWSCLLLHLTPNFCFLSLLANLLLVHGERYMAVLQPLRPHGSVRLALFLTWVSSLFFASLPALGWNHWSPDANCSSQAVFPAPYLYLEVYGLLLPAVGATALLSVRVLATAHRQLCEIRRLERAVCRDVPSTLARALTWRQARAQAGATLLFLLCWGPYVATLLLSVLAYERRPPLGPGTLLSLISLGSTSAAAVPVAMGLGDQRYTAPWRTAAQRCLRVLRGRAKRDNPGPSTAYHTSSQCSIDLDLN
Protocol: as §1

hTGR5-Q77R/R80Q/Y89H = target: T3, hTGR5-Q77R/R80Q/Y89H (Homo sapiens, UniProt Q8TDU6, Q77R/R80Q/Y89H); assay: CRE-luciferase reporter assay in HEK293 cells transfected with human-to-mouse triple mutant TGR5; conditions: for EC50: CRE-luciferase dose-response, HEK293, n = 3; for agonist activity (CRE-luciferase response): HEK293
T3 sequence (Q8TDU6 1-330 Q77R/R80Q/Y89H): T1 sequence (Q8TDU6 1-330) with Q77R, R80Q, Y89H

hTGR5-Q77A/R80A/Y89A = conditions: 100 μM, 5 h, HEK293
Protocol: as §1
(PDF) Click here for additional data file.

mTGR5-R76Q/Q79R/H88Y = target: T4, mTGR5-R76Q/Q79R/H88Y (Mus musculus, UniProt Q80SS6, H88Y/Q79R/R76Q); assay: CRE-luciferase reporter assay in HEK293 cells transfected with mouse-to-human triple mutant TGR5; conditions: for agonist activity (CRE-luciferase response): mTGR5-R76Q/Q79R/H88Y, HEK293
T4 sequence (Q80SS6 1-329 R76Q/Q79R/H88Y): T2 sequence (Q80SS6 1-329) with R76Q, Q79R, H88Y

Structure (SMILES)	EC50 (hTGR5-WT)	agonist activity (CRE-luciferase response) (mTGR5-WT)	EC50 (mTGR5-WT)	EC50 (hTGR5-Q77R/R80Q/Y89H)	agonist activity (CRE-luciferase response) (hTGR5-Q77R/R80Q/Y89H)	agonist activity (CRE-luciferase response) (hTGR5-Q77A/R80A/Y89A)	EC50 (mTGR5-R76Q/Q79R/H88Y)	agonist activity (CRE-luciferase response) (mTGR5-R76Q/Q79R/H88Y)	agonist activity (CRE-luciferase response) (hTGR5-WT)
CC(=O)O[C@H]1CC(=O)OC(C)(C)[C@@H]2CC(=O)[C@]3(C)[C@H](CC[C@@]4(C)[C@H](c5ccoc5)OC(=O)[C@H]5O[C@]543)[C@@]12C [nomilin]	23.6 µM	considerably weaker agonist activity for mTGR5 than it does for hTGR5	undetectable	undetectable	very weak nomilin response identical to that of mTGR5	very weak nomilin response relative to WT-hTGR5	46.2 µM	strong nomilin response equal to that of hTGR5-WT	
CC1(C)O[C@H]2CC(=O)OC[C@]23[C@H]2CC[C@@]4(C)[C@H](c5ccoc5)OC(=O)[C@H]5O[C@]54[C@]2(C)C(=O)C[C@@H]13 [limonin]									very weak hTGR5 agonist activity
CC1(C)OC(=O)C=C[C@]2(C)[C@H]3CC[C@@]4(C)[C@H](c5ccoc5)OC(=O)[C@H]5O[C@]54[C@]3(C)C(=O)C[C@@H]12 [obacunone]	147 µM	very weak obacunone response	undetectable	undetectable	very weak obacunone response		165 µM	equally intense obacunone responses	stronger agonist activity for hTGR5 than it does for mTGR5
